The text below walks through data of patent US8728787B2, “Fungal laccases and uses thereof” (Academia Sinica, priority 2010, dated 2014).

Read-outs that look alike come from different tables or passages of the source.

In series [1] the test system is Lentinus sp. laccase, wild type, purified from culture. Nature of the series: Laccase kinetics of purified Lentinus sp. laccase. The series is classed as biochemical. On the procedure: All chemicals used in this study were obtained from Merck (Darmstadt, Germany) or Sigma-Aldrich (St. Louis, Mo. USA). All spectrophotometric measurements were performed using the Beckman DU 640 spectrophotometer (Beckman Coulter, USA).
Kinetic parameters Km and Vmax were determined as follows. […] The oxidation reactions of guaiacol and 2,6-DMP were monitored by determining OD436 values (ε=6,400 M^−1cm^−1) and OD468 values (ε=49,600 M^−1 cm^−1), respectively. The kinetic parameters were determined by nonlinear regression analysis (ENZFITTER software program, Elsevier-Biosoft, Cambridge, UK) using the Michaelis-Menten model.
Kinetic parameters were determined following conventional methods. See also Example 1 above.

Series [2] relates to Trametes versicolor laccase. The settings on record: ABTS as substrate, optimum 55 °C at pH 4.0, cited from earlier work.
In series [3] the test system is Trametes C30 laccase LAC2. The note with it: ABTS as substrate, optimum 55 °C at pH 5.7, cited from earlier work.
The subject of series [4] is Trametes pubescens laccase LAP2. The settings on record: ABTS as substrate, optimum 25 °C at pH 4.0, cited from earlier work.
In series [5] the test system is Cerrena unicolor laccase. The note with it: ABTS as substrate; optimum 70 °C at pH 3.5; cited from earlier work.
The test system of series [6] is Panus(Lentinus)tigrinus 8/18 laccase. The settings on record: ABTS as substrate; cited from earlier work.
Series [7] concerns Agaricus blazei laccase. The note with it: ABTS as substrate, optimum 25 °C at pH 2.3, cited from earlier work.
The test system of series [8] is Panus tigrinus laccase. The note with it: ABTS as substrate, optimum 30 °C at pH 3.5, cited from earlier work.
Series [9] deals with Pleurofus sajor-caju laccase. The settings on record: ABTS as substrate, optimum 40 °C at pH 5.0, cited from earlier work.
Series [10] concerns Pycnoporus sanguineus laccase. The note with it: ABTS as substrate, optimum 25 °C at pH 3.0, cited from earlier work.
Series [11] in a line: Laccase activity in culture media of recombinant P. pastoris. The class given is biochemical. The note with it: expressed in P. pastoris X-33; 13-26 day (Lcc1-3) or 18-day (LccA) cultivation. The source says:
The EasySelect™ Pichia Expression System (Invitrogen) was used in this study for expression of Lcc1, Lcc2, and Lcc3 laccases. cDNA fragments coding for these three laccases were cloned into Pichia expression vector pPICZA or pPICZaB via EcoRI and NotI restriction sites. More specifically, the lcc1 gene coding for Lcc1 precursor (including a signal peptide sequence) was cloned into pPICA to generate expression plasmid pPICZA-lcc1 and the lcc2 and lcc3 genes coding for mature Lcc2 and Lcc3 were cloned into pPICZaB to obtain expression plasmids pPICZaB-lcc2 and pPICZaB-lcc3, respectively. The three expression plasmids were introduced into P. pastoris X-33 cells following the method described in Invitrogen's protocol. Positive transformants were cultured in BMMY (1% yeast extract, 2% peptone, 100 mM potassium phosphate, pH 6.0, 1.34% yeast nitrogen base, 0.00004% biotin, and 0.5% methanol) at 25° C., 200 rpm for 12-26 days. Methanol was added to the culture media daily to reach a final concentration of 0.5%. During the cultivation, 1 ml of the supernatant was collected at various time points. The laccase activity and cell density in the supernatant were determined following the method described above or routine procedures.
pPICZ-lccA was introduced into Pichia pastoris strain X-33 host cells (Invitrogen) and positive transformants were selected for LccA expression. Briefly, a positive transformant was cultured in BMMY medium containing 1% yeast extract, 2% peptone, 1.34% yeast nitrogen base, 0.00004% biotin, and 0.5% methanol at 25° C. and 200 rpm for 20 days. Methanol was daily added to reach a final concentration of 0.5%. Within the 20-day cultivation, 1 ml of the supernatant was collected; laccase activity and cell growth were determined.

Substrate in series [12]: CCn1c(=NN=c2sc3cc(S(=O)(=O)O)ccc3n2CC)sc2cc(S(=O)(=O)O)ccc21
Nature of the series: purified protein, by the assay type. The settings on record: other: ABTS as substrate, 50 mM citrate buffer, 50 °C, pH 3.0.

Substrate in series [13]: COc1cccc(OC)c1O
In words: Laccase kinetics of purified Cerrena sp. WR1 Lcc3. The note with it: other: 2,6-DMP as substrate, 50 mM citrate buffer, 70 °C, pH 3.5, pH 3.5. The series is classed as biochemical.

Substrate in series [14]: COc1ccccc1O
Nature of the series: Laccase kinetics of purified Cerrena sp. WR1 Lcc3. The class given is biochemical. The note with it: other: guaiacol as substrate, 50 mM citrate buffer, 70 °C, pH 4.5, pH 4.5.

Where [15] appears, read: guaiacol as substrate, optimum 70 °C at pH 5.0.
Where [16] appears, read: ABTS as substrate, optimum 70 °C at pH 2.5.
Where [17] appears, read: 2,6-DMP as substrate, optimum 60 °C at pH 3.5.

The term Km denotes the concentration of substrate that gives half-maximal velocity. A word on the kcat: it is the maximal rate divided by the concentration of active sites. `COc1ccccc1O` [guaiacol]: in series [1] (setting [15]), the Michaelis constant (Km) is 524 µM and the turnover number (kcat) is 305.5 s⁻¹.
Consider `CCn1c(=NN=c2sc3cc(S(=O)(=O)O)ccc3n2CC)sc2cc(S(=O)(=O)O)ccc21` [ABTS, 2,2′-azino-bis-(3-ethylbenzthiazoline-6-sulfonic acid)], for which the Km was 8.4 µM in series [1] (setting [16]); 37.3 µM in [2] (Table 2); 37.3 µM in series [2] (Table 4); 536 µM in series [3] (Table 2); 536 µM in series [3] (Table 4); 43 µM in [4] (Table 2). Besides, the Km in series [4] (Table 4) is 43 µM; in [5], 800 µM; in series [6] it was 33.4 µM; in series [7] (Table 2) it was 63 µM; in [7] (Table 4), 63 µM; in [8] (Table 2), 31 µM. In addition, the Km in series [8] (Table 4) was 31 µM; in [9] (Table 2) it was 56 µM; in series [9] (Table 4), 56 µM; in series [10] (Table 2), 77 µM; in [10] (Table 4), 77 µM. For the same molecule, the kcat is 2016.5 s⁻¹ in series [1] (setting [16]); 351.3 s⁻¹ in series [2]; 683.33 s⁻¹ in [3]; 350 s⁻¹ in series [4]; 21 s⁻¹ in [7]; 185.69 s⁻¹ in [8]. The catalytic constant (kcat) was 520.24 s⁻¹ in series [9] and 1.155 s⁻¹ in series [10].
Consider `COc1cccc(OC)c1O` [2,6-DMP, 2,6-dimethoxyphenol], for which, in series [1] (setting [17]), the Km is 434 µM and the kcat was found to be 121.9 s⁻¹.

B1: Lcc2: laccase from Cerrena sp. WR1, GenBank accession no. GQ899202; SEQ ID NO:2 mature, 8 precursor (protein)
chain: AIGPVTDLTITNATISPDGFSRQAVLAGGVFPGPLITGNKGDNFQINVVNSLENSDMLKSTTIHWHGFFQKGTNWADGPAFVNQCPIATGNSFLYNFNADDQAGTFWYHSHLSTQYCDGLRGPMVVYDPNDPHASLYDVDDESTVITLADWYHTLARLGAAFPTADATLINGLGRYSDGTTSDLAVITVESGKRYRFRLVNISCDPNYTFSIDNHTFTVIEVDGVNHAALDVDEIQIFAGQRYSFVLTANQTVDNYWIRANPNLGTTGFDNGINSAILRYSGANETEPTTTQTTATAALSEASLVPLEDPAAPGEAVAGGVDYALNLAFAFDGANLDFTVNGETYVSPTVPVLLQILSGASSVSDLLPAGSVYSLPSNSTIELSMPGGVVGGGHPLHLHGHAFSVVRSAGSDTYNYVNPPRRDVVNIGAAGDNVTIRFTTDNPGPWFLHCHIDFHLEAGFAVVFAEDFNATASSNTVTTEWSNLCTTYDALSADDQ
modifications: Cerrena sp
B1: in [11], the “laccase activity in culture media” value was approximately 160 U/L.

B2: LccA: laccase from Lentinus sp., GenBank accession no. FJ693715; SEQ ID NO:4 mature, 10 precursor (protein)
chain: GIGPIASLVVTDAQISPDGYLRDAIVTNGVFPAPLITGRKGDHFQLNVVDSMTNHTMLKSTSIHWHGFFQKGTNWADGPAFVNQCPISSGHSFLYDFHVPDQAGTFWYHSHLSTQYCDGLRGPMVVYDPNDPHANLYDIDNDSTVITLADWYHVAAKLGPRFPLGADATLINGKGRSPATPTAALSVINVVKGKRYRFRLVSISCDPNYVFSIDNHTMTVIEADTVNTQPLAVDSIQIFAAQRYSFILNANQPVDNYWIRANPNFGNVGFTDGINSAILRYTGAALVEPSATTAPTLSNPLVETNLHPLAPMPVPGQPVSGGVDKAINFAFNFDGTDFFINGASFVPPTVPVLLQIMSGASTAQDLLPSGSVYPLPSNATIELSFPATAAAPGAPHPFHLHGHVFAVVRSAGSTTYNYNNPIWRDVVSTGTPAAGDNVTIRFSTNNPGPWFLHCHIDFHLEAGFAVVMAEDVPDIPSANPVPQAWSNLCPTYNALSSDDQ
modifications: Lentinus sp
As to B2, the “laccase activity in culture media” value in series [11] was “about 400 U/L”.

B3: Lcc1: laccase from Cerrena sp. WR1, GenBank accession no. GQ899201; SEQ ID NO:1 mature, 7 precursor (protein)
chain: AIGPVTDLEITNGTISPDGYSRAAVLAGGSFPGPLITGNKSDNFQINVVNSLADSDMLKSTTVHWHGFFQKGTNWADGPAFVNQCPIATGNSFLYNFNATDQAGTFWYHSHLETQYCDGLRGPMVVYDPDDPHADLYDVDDDSTVITLADWYHTLARLGAAFPTSDATLINGLGRYSDGNTTDLAVITVESGKRYRFRLVSISCDPNFTFSIDNHTMTIIEADAVNYTPLDVDEIQIFAGQRYSFILTANQTVDNYWIRADPNVGTTGFDNGINSAILRYSGADEVEPTTNQTTSTNPLVEANLVPLDGAAAPGEAVAGGVDYALNLALAFDGTNLDFTVNGYEYTSPTVPVLLQILSGASSVDDLLPSGSIYSLPSNSTIELSIPALAVGAPHPIHLHGHTFSVVRSAGSTTYNYDNPPRRDVVSIGTATDDNVTIRFTTDNPGPWFLHCHIDFHLEAGFAVVFAEDFNDTASANTVTTEWSDLCTTYDALSSDDL
modifications: Cerrena sp
In the case of B3, the “laccase activity in culture media” value in [11] was “approximately 800 U/L”.

B4: Cerrena sp. WR1 laccase Lcc3, wild type (mature SEQ ID NO: 3; precursor SEQ ID NO: 9; GenBank GQ899203) (Cerrena sp. WR1) (protein)
chain: AIGPVADLHITDANVSPDGFTRPAVLAGGTFPGPLITGKQGDNFQINVIDELTDATMLKSTSIHWHGIFQKGTNWADGPSFVNQCPITTGNSFLYDFSVPDQTGTYWYHSHLSTQYCDGLRGALVIYDDNDPHKDLYDVDDETTVITLADWYHTQARLITGVPVSDATLINGLGRYLNGPTDAPLAVITVDQGKRYRFRLVSISCDPNFVFSIDNHSMTVIEVDAVNSQPLVVDSIQIFAAQRYSFILNANQSVGNYWIRANPNLGNTGFTNGINSAILRYNGAPVAEPNTTQTASTNPLNEVNLHPLVPTPVPGTPQPGGVDVVQNLVLGFSGGKFTINGVAFSPPTVPVLLQILSGTTTAQDLLPTGSIIELPLGKTVELTLAAGVLGGPHPFHLHGHTFHVVRSAGQTTPNYVDPILRDTVNTGAAGDNVTIRFTTDNPGPWFLHCHIDWHLEAGFAVVFAEGLNQTNAANPTPDAWNNLCDLYNALPAGDQ
notes: WR1 culture supernatant (Q Sepharose); precursor 516 aa with 21-residue signal peptide
In general, kcat/Km refers to the second-order rate constant that governs catalysis at low substrate concentration. For B4, in [12], the Km stood at 3.27 µM and the kcat came to 934.6 s⁻¹. Moreover, in [13], the Michaelis constant (Km) was found to be 392.7 µM, the catalytic constant (kcat) turned out to be 109 s⁻¹ and the kcat/Km was determined as 280000 M⁻¹ s⁻¹. Moreover, in series [14], the Michaelis-Menten constant (Km) was 849.1 µM and the kcat came to 148 s⁻¹.
